Values of other authors as cited in US20210212952A1, “METHOD AND ENCAPSULATED SUBSTANCE FOR TREATING PAIN DUE TO A VARIETY OF DISEASES” (priority 2020, published 2021).

Details: in vivo, po

O=C1CC[C@@]2(O)[C@H]3Cc4ccc(O)c5c4[C@@]2(CCN3CC2CC2)[C@H]1O5 [Naltrexone, naltrexone]
absorbed into the blood stream: 96%
